Measured values: publication PMC5767004, “Inhibitors of the integrase–transportin-SR2 interaction block HIV nuclear import” (Retrovirology, 2018)
Entries after “also recorded” stand apart in the source; their conditions may differ.

Experiments:
HIV = details: cited from earlier work
[1] = tested on: HIV PIC nuclear import (IN-eGFP labeled virus); assay: PIC nuclear import assay in HeLaP4 cells; type: cell-based, HIV-1; details: 100 µM hit compound, 5 h after infection, experiment compared to DMSO
[2] = molecular target: T1, HIV-1 IN–TRN-SR2 interaction (UniProt P12497+Q9Y5L0); assay: HIV-1 IN–TRN-SR2 AlphaScreen interaction assay; type: binding; details: evaluation as positive control, Fig. 2b
T1 construct: N-terminally His6-tagged and untagged IN; made in house; host or cells: E. coli BL21-CodonPlus2 (DE3)
T1 sequence (Q9Y5L0 whole entry, other chains not shown): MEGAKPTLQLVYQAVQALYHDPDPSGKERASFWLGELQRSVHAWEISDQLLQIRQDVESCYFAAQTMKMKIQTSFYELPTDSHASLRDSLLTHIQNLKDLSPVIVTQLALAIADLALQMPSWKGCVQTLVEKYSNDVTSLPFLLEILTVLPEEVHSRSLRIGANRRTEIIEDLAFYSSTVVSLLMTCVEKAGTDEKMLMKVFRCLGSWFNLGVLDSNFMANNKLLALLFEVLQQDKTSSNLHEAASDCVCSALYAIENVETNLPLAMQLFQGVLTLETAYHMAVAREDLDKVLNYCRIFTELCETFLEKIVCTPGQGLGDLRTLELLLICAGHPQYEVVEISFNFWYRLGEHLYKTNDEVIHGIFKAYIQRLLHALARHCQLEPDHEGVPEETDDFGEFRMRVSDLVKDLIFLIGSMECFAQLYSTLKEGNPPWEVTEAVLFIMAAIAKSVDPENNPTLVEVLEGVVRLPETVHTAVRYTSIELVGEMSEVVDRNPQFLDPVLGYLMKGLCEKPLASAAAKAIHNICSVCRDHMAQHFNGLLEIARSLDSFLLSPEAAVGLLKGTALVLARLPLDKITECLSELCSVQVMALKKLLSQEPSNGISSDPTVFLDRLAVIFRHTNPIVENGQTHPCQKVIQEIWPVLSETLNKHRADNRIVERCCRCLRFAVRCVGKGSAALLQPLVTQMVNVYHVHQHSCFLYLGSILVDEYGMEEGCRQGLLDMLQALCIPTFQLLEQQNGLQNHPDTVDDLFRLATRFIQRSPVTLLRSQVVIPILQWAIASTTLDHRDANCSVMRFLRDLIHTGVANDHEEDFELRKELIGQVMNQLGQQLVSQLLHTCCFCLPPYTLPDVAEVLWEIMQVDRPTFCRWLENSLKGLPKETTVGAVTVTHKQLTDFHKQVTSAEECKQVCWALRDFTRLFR
Method: Compound stocks were dissolved at approximately 5 mM in dimethylsulfoxide (DMSO) in 96-well plates. Stocks were first diluted to 125 µM in assay buffer (150 mM NaCl, 25 mM Tris–HCl pH 7.4, 1 mM MgCl2, 0.1% (v/v) Tween-20 and 0.1% (w/v) bovine serum albumin (BSA)) supplemented with 2.5% (v/v) DMSO before 10 µl was transferred to a dry 384-well PS 384-OptiPlate (Perkin Elmer) on a Freedom EVO200 liquid handling robot (Tecan). Untagged TRN-SR2 at 2.5 µM and assay buffer containing 5% DMSO were transferred from a separate 96-well plate to the assay plates and represented the positive and negative controls, respectively. Next, 5 µl each of 5× working dilutions of GST-TRN-SR2 and His6-IN were added using an XRD-384 automated reagent dispenser (FluidX). The plate was left to incubate for 1 h at 7 °C before 5 µl of a glutathione donor and Ni^2+-chelate acceptor AlphaScreen bead mixture (Perkin Elmer) was added. […]
Development of robust high-throughput assays requires optimal buffer conditions in which both proteins and the detection method are stable and reproducible. […] This experience allowed us to readily adapt an assay buffer to meet the requirements for a high-throughput screen (HTS) for inhibitors of the interaction. […]

Cc1[nH]c2ccccc2c1CC(=O)N[C@@H](Cc1ccccc1)C(=O)N(C)c1ccccc1 [PF74, PF-3450074]
Inhibition of reverse transcription (in words) (HIV; higher concentrations (10 µM)): inhibits reverse transcription at higher concentrations | Inhibition of HIV nuclear import (in words) (HIV; low concentrations (2 µM)): known to inhibit nuclear import at low concentrations

Cc1nnc(C(=O)NC(C)(C)c2nc(C(=O)NCc3ccc(F)cc3)c(O)c(=O)n2C)o1 [Ral, Raltegravir]
% nuclear PICs (mean) [1]: 4.5%

Untagged TRN-SR2: untagged recombinant Transportin-SR2 protein, positive control of the AlphaScreen
Inhibition of the IN–TRN-SR2 AlphaScreen signal by untagged protein (titration, in words) [2]: could block the interaction completely; also recorded: did inhibit the signal
